Source: patent US11236068B2, “Fused ring compounds” (Genentech, Inc., priority 2018, dated 2022)

The compounds below were run against K-Ras G12C (Homo sapiens (Human), UniProt P01116, G12C) (assay: Western blot assay for in cell alkylation of K-Ras G12C (HCC1171 cells)). Settings: 18 hours at 37° C., 7 point dose response.
Assay type: cell-based
Procedure: HCC1171 cells were maintained in RPMI1640 supplemented with 10% FBS. Cells were plated in a 96-well plate at 20,000 cells/well and the following day compounds were added to the cells. After 18 hours at 37° C., cells were lysed in RIPA buffer (Sigma RO278) with 0.5% SDS and protease/phosphatase inhibitor cocktail. After through mixing to enable complete lysis, the lysates were cleared by centrifugation before 20 µl was transferred from each well and combined with loading buffer and reducing agent. After heating for 10 minutes at 95° C., […] of each sample was loaded onto a 4-20% Tris-Glycine gel and electrophoresed at 110V for 165 minutes in SDS-PAGE running buffer. Gels were transferred to a nitrocellulose membrane, blocked for 1 hour and stained overnight at 4° C. with primary antibody against K-Ras (polyclonal Proteintech 12063-1-AP). The membrane was then washed thoroughly and counterstained with anti-rabbit IRDye 800CW (LI-COR 926-32211) for one hour at room temperature. After final washes, the membrane was imaged on a LI-COR Odyssey CLx at medium resolution. […] To quantify this affect, the LICOR software was used to draw a rectangle over alkylated and unalkylated bands for each well and measured the total fluorescent intensity (FI) in each of these bands. The following formula was then used to calculate % alkylation: FI(alkylated)/(FI(alkylated)+FI(unalkylated))*100 for each well.
A 7 point dose response curve was used to determine the IC50 for each compound. Cell alkylation data are presented below in Table 3.

Sequence of K-Ras G12C (P01116 other isoform, or with tags, fused parts or gaps G12C): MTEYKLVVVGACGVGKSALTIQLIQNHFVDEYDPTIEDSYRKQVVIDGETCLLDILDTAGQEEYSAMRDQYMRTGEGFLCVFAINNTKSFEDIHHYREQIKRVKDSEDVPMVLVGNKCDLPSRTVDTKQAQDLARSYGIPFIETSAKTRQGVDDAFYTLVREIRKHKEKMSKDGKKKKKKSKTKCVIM

SMILES	EC50
C=CC(=O)N1CCN(c2ncnc3cc(-c4nc(NC)ccc4C(F)(F)F)c(Cl)cc23)CC1 [Example 53, 1-(4-[6-chloro-7-[6-(methylamino)-3-(trifluoromethyl)pyridin-2-yl]quinazolin-4-yl]piperazin-1-yl)prop-2-en-1-one]	3400 nM
C=C(F)C(=O)N1CC(C)N(c2nc(OC[C@@H]3C[C@@H](F)CN3C)nc3cc(-c4nc(N)cc(C)c4C(F)(F)F)c(Cl)cc23)C[C@H]1CC#N (stereo partly drawn) [Example 58, 2-[(2R)-4-[7-[6-amino-4-methyl-3-(trifluoromethyl)-2-pyridyl]-6-chloro-2-[[(2S,4R)-4-fluoro-1-methyl-pyrrolidin-2-yl]methoxy]quinazolin-4-yl]-1-(2-fluoroprop-2-enoyl)-5-methyl-piperazin-2-yl]acetonitrile]	33 nM
C=CC(=O)N1CCN(c2ncnc3cc(-c4nc(N)cc(C)c4Cl)c(Cl)cc23)CC1 [Example 14, 1-(4-(7-(6-amino-3-chloro-4-methylpyridin-2-yl)-6-chloroquinazolin-4-yl)piperazin-1-yl)prop-2-en-1-one]	400 nM
C=CC(=O)N1CCN(c2ncnc3cc(-c4nc(N)ccc4C(F)(F)F)c(C4CC4)cc23)CC1 [Example 29, 1-[4-[7-[6-amino-3-(trifluoromethyl)-2-pyridyl]-6-cyclopropyl-quinazolin-4-yl]piperazin-1-yl]prop-2-en-1-one]	830 nM
C=CC(=O)N1CCN(c2ncnc3cc(-c4nc(N)cc(C)c4C)c(Cl)cc23)CC1 [Example 13, 1-(4-(7-(6-amino-3,4-dimethylpyridin-2-yl)-6-chloroquinazolin-4-yl)piperazin-1-yl)prop-2-en-1-one]	1300 nM
C=CC(=O)N1CCN(c2ncnc3cc(-c4nc(N)ccc4OC(F)(F)F)c(Cl)cc23)CC1 [Example 40, 1-(4-[7-[6-amino-3-(trifluoromethoxy)pyridin-2-yl]-6-chloroquinazolin-4-yl]piperazin-1-yl)prop-2-en-1-one]	1100 nM
Cc1cc(N)nc(-c2cc3ncnc(N4CCN(C(=O)C5=CCC5)C(C#N)C4)c3cc2Cl)c1C(F)(F)F (stereo not shown) [Example 23, 4-[7-[6-amino-4-methyl-3-(trifluoromethyl)-2-pyridyl]-6-chloro-quinazolin-4-yl]-1-(cyclobutene-1-carbonyl)piperazine-2-carbonitrile]	910 nM
C=CC(=O)N1CCN(c2nc(OCCN3CC(CF)C3)nc3cc(-c4nc(N)ccc4C(F)(F)F)c(Cl)cc23)CC1 [Example 76, 1-(4-(7-(6-amino-3-(trifluoromethyl)pyridin-2-yl)-6-chloro-2-(2-(3-(fluoromethyl)azetidin-1-yl)ethoxy)quinazolin-4-yl)piperazin-1-yl)prop-2-en-1-one]	140 nM
C=CC(=O)N1CCN(c2ncnc3c(F)c(-c4nc(N)cc5cccc(F)c45)c(Cl)cc23)CC1 [Example 27, 1-[4-[7-(3-amino-8-fluoro-1-isoquinolyl)-6-chloro-8-fluoro-quinazolin-4-yl]piperazin-1-yl]prop-2-en-1-one]	140 nM
C=CC(=O)N1CCN(c2ncnc3cc(-c4nc(N)ccc4C4CC4)c(OC)cc23)CC1 [Example 47, 1-[4-[7-(6-amino-3-cyclopropylpyridin-2-yl)-6-methoxyquinazolin-4-yl]piperazin-1-yl]prop-2-en-1-one]	3900 nM
C=CC(=O)N1CCN(c2ncnc3cc(-c4nc(N)cc5ccc(F)cc45)c(Cl)cc23)CC1 [Example 49, 1-[4-[7-(3-amino-7-fluoroisoquinoline-1-yl)-6-chloroquinazolin-4-yl]piperazin-1-yl]prop-2-en-1-one]	250 nM
C=CC(=O)N1CCN(c2ncnc3cc(-c4nc(N)cc5ccccc45)c(Cl)cc23)CC1 [Example 1, 1-[4-[7-(3-amino-1-isoquinolyl)-6-chloro-quinazolin-4-yl]piperazin-1-yl]prop-2-en-1-one]	560 nM
C=CC(=O)N1CCN(c2nc(OC[C@@H]3[C@@H](F)CCN3C)nc3cc(-c4nc(N)ccc4C(F)(F)F)c(Cl)cc23)CC1 [Example 77, 1-[4-[7-[6-amino-3-(trifluoromethyl)-2-pyridyl]-6-chloro-2-[[(2R,3S)-3-fluoro-1-methyl-pyrrolidin-2-yl]methoxy]quinazolin-4-yl]piperazin-1-yl]prop-2-en-1-one]	25 nM
C=CC(=O)N1CCN(c2nc(NCCN(C)C)nc3cc(-c4nc(N)ccc4C(F)(F)F)c(Cl)cc23)CC1 [Example 45, 1-(4-[7-[6-amino-3-(trifluoromethyl)pyridin-2-yl]-6-chloro-2-[[2-(dimethylamino)ethyl]amino]quinazolin-4-yl]piperazin-1-yl)prop-2-en-1-one]	2400 nM
Cc1cc(N)nc(-c2cc3ncnc(N4CCN(C(=O)C5CO5)C(C#N)C4)c3cc2Cl)c1C(F)(F)F (stereo not shown) [Example 24, 4-[7-[6-amino-4-methyl-3-(trifluoromethyl)-2-pyridyl]-6-chloro-quinazolin-4-yl]-1-(oxirane-2-carbonyl)piperazine-2-carbonitrile]	6300 nM
C=CC(=O)N1CCN(c2ncnc3cc(-c4nc(N)cc5cc(OC)ccc45)c(Cl)cc23)CC1 [Example 6, 1-[4-[7-(3-amino-6-methoxy-1-isoquinolyl)-6-chloro-quinazolin-4-yl]piperazin-1-yl]prop-2-en-1-one]	10000 nM
C=CC(=O)N1CCN(c2ncnc3cc(-c4nc(N)ccc4C(F)(F)F)c(Cl)cc23)[C@@H](C)C1 [Example 54, 1-[(3S)-4-[7-[6-amino-3-(trifluoromethyl)pyridin-2-yl]-6-chloroquinazolin-4-yl]-3-methylpiperazin-1-yl]prop-2-en-1-one]	140 nM
C=CC(=O)N1CCN(c2ncnc3cc(-c4nc(N)ccc4C)c(Cl)cc23)CC1 [Example 15, 1-(4-(7-(6-amino-3-methylpyridin-2-yl)-6-chloroquinazolin-4-yl)piperazin-1-yl)prop-2-en-1-one]	2800 nM
C=CC(=O)N1CCN(c2nc(OC[C@@H]3C[C@@H](F)CN3CCOC)nc3cc(-c4nc(N)ccc4C(F)(F)F)c(Cl)cc23)CC1 [Example 89, 1-[4-[7-[6-amino-3-(trifluoromethyl)-2-pyridyl]-6-chloro-2-[[(2S,4R)-4-fluoro-1-(2-methoxyethyl)pyrrolidin-2-yl]methoxy]quinazolin-4-yl]piperazin-1-yl]prop-2-en-1-one]	29 nM
C=CC(=O)N1CCN(c2nc(OCC3(C)CC(F)(F)CN3C)nc3cc(-c4nc(N)ccc4C(F)(F)F)c(Cl)cc23)CC1 (stereo not shown) [Example 73, 1-(4-(7-(6-amino-3-(trifluoromethyl)pyridin-2-yl)-6-chloro-2-((4,4-difluoro-1,2-dimethylpyrrolidin-2-yl)methoxy)quinazolin-4-yl)piperazin-1-yl)prop-2-en-1-one]	110 nM
C=CC(=O)N1CCN(c2ncnc3cc(-c4nc(N)cc(C(F)(F)F)c4C)c(Cl)cc23)CC1 [Example 33, 1-(4-[7-[6-amino-3-methyl-4-(trifluoromethyl)pyridin-2-yl]-6-chloroquinazolin-4-yl]piperazin-1-yl)prop-2-en-1-one]	2100 nM
C=CC(=O)N1CCN(c2ncnc3cc(-c4nc(NC(C)=O)ccc4C)c(Cl)cc23)CC1 [Example 16, N-(6-[6-chloro-4-[4-(prop-2-enoyl)piperazin-1-yl]quinazolin-7-yl]-5-methylpyridin-2-yl)acetamide]	8200 nM
C=CC(=O)N1CCN(c2ncnc3cc(-c4nc(N)ccc4C(F)F)c(Cl)cc23)CC1 [Example 41, 1-(4-[7-[6-amino-3-(difluoromethyl)pyridin-2-yl]-6-chloroquinazolin-4-yl]piperazin-1-yl)prop-2-en-1-one]	16000 nM
C=C(F)C(=O)N1CCN(c2ncnc3cc(-c4nc(N)cc(C)c4C(F)(F)F)c(Cl)cc23)CC1 [Example 26, 1-(4-[7-[6-amino-4-methyl-3-(trifluoromethyl)pyridin-2-yl]-6-chloroquinazolin-4-yl]piperazin-1-yl)-2-fluoroprop-2-en-1-one]	140 nM
C=CC(=O)N1CCN(c2nc(C)nc3cc(-c4nc(N)cc(C)c4C(F)(F)F)c(Cl)cc23)CC1 [Example 32, 1-(4-[7-[6-amino-4-methyl-3-(trifluoromethyl)pyridin-2-yl]-6-chloro-2-methylquinazolin-4-yl]piperazin-1-yl)prop-2-en-1-one]	200 nM
C=CC(=O)N1CCN(c2ncnc3cc(-c4ncccc4C)c(Cl)cc23)CC1 [Example 2, 1-[4-[6-chloro-7-(3-methyl-2-pyridyl)quinazolin-4-yl]piperazin-1-yl]prop-2-en-1-one]	16000 nM
C=CC(=O)N1CCN(c2ncnc3cc(-c4nc(NC(=O)C5CC5)cc5ccccc45)c(Cl)cc23)CC1 [Example 36, N-(1-(4-(4-acryloylpiperazin-1-yl)-6-chloroquinazolin-7-yl)isoquinolin-3-yl)cyclopropanecarboxamide]	5500 nM
C=CC(=O)N1CCN(c2nc(OC[C@@H]3CCCN3)nc3c(F)c(-c4nc(N)cc(C)c4C(F)(F)F)c(Cl)cc23)[C@@H](C)C1 [Example 93, 1-((3S)-4-(7-(6-amino-4-methyl-3-(trifluoromethyl)pyridin-2-yl)-6-chloro-8-fluoro-2-(((S)-pyrrolidin-2-yl)methoxy)quinazolin-4-yl)-3-methylpiperazin-1-yl)prop-2-en-1-one]	130 nM
